According to patent US8383547B2 (priority 2005, dated 2013):

Legend:
[1] = tested on: dipeptidyl aminopeptidase II (DPP II); conditions: stated as known; cited from earlier work
[2] = tested on: Aspergillus parasiticus NRRL2999; assay type: cell-based
[3] = tested on: Aspergillus parasiticus NRRL2999; assay type: cell-based; remark: listed apart in the source
[4] = tested on: aflatoxin-producing microorganism; conditions: Non-Patent Literature 3; cited from earlier work

Row | Compound | DPPII inhibition (known) [1] | Inhibition of aflatoxin production [2] | Inhibition of growth of aflatoxin-producing microorganism [3] | Aflatoxin production inhibitory activity [4]
1 | NCC[C@H](N)C(=O)N1CCCCC1 [Dab-Pip] | strong inhibitor | neither Orn-Pip nor Dab-Pip inhibited aflatoxin production | not observed | –
2 | NCCCC(N)C(=O)N1CCCCC1 (stereo not drawn) [Orn-Pip] | strong inhibitor | neither Orn-Pip nor Dab-Pip inhibited aflatoxin production | not observed | –
3 | COP(=O)(OC)OC=C(Cl)Cl [dichlorvos] | – | – | – | weak
4 | Cc1cccc2sc3nncn3c12 [tricyclazole] | – | – | – | weak
5 | dioctatin | inhibition of dipeptidyl aminopeptidase II | – | – | –
